In brackets after ≈: the same amount, converted by molar mass.
Assays:
Assay type in all cases: cell-based
[1] = system: Aspergillus fumigatus (ND158); test: Microbroth susceptibility testing, filamentous fungi (MEC); details: strain ND158, minimum effective concentration
Method: Microbroth Susceptibility Testing Methods Filamentous fungi susceptibility testing procedure follows the NCCLS document M38-A (Reference Method for Broth Dilution Antifungal Susceptibility Testing of Filamentous Fungi; Approved Standard (ISBN 1-56238-470-8). NCCLS, 940 West Valley Road, Suite 1400 Wayne, Pa. 19087-1898 USA, 2002) with the following modifications: 1. The final test volume was 100 μl and not 200 μl as stipulated. 2. The end point used to assess the in vitro activity of glucan synthase inhibitors may require microscopic evaluation of cell morphology in the test wells (Kurtz et al., Antimicrobial Agents and Chemotherapy, 38, 1480-1489, 1994; […] et al., Antimicrobial Agents and Chemotherapy, 45, 327-330, 2001).

Candida albicans (C697) = test: Microbroth susceptibility testing, yeast (MIC); details: strain C697
Method: (§1) Microbroth Susceptibility Testing Methods
(§2) Yeast susceptibility testing procedure followed the NCCLS document M27-A2 (Reference Method for Broth Dilution Antifungal Susceptibility Testing of Yeasts; Approved Standard-Second Edition (ISBN 1-56238-469-4). NCCLS, 940 West Valley Road, Suite 1400 Wayne, Pa. 19087-1898 USA, 2002) with the following modifications:
(§3) 1. The final test volume was 100 μl and not 200 μl as stipulated. 2. For testing Saccharomyces cerevisiae strain PM503 YPD was used in place of RPMI 1640 broth.

[2] = system: Saccharomyces cerevisiae (C51); test: Microbroth susceptibility testing, yeast (MIC); details: read-out: MIC Saccharomyces cerevisiae (C51)
Method: as §1, §2, §3

Candida albicans (C693) = test: Microbroth susceptibility testing, yeast (MIC); details: strain C693
Method: as §1, §2, §3

Candida glabrata (C624) = test: Microbroth susceptibility testing, yeast (MIC); details: Nakaseomyces glabratus; strain C624
Method: as §1, §2, §3

SMILES	minimal effective concentration [1] [µg/mL]	MIC (Candida albicans (C697)) [µg/mL]	MIC [2] [µg/mL]	MIC (Candida albicans (C693)) [µg/mL]	MIC (Candida glabrata (C624)) [µg/mL]
O=c1c(OC2Cc3ccccc3C2)c(N2CCN(Cc3cccs3)CC2)cnn1-c1ccccc1 [compound 428]	1 to 5	1 to 5 (≈ 2.06 to 10.3 µM)	0.5 to 1 (≈ 1.03 to 2.06 µM)	5 to 50 (≈ 10.3 to 103 µM)	5 to 50 (≈ 10.3 to 103 µM)
O=c1c(OCCC2CCCCC2)c(N2CCN(Cc3cccc(O)c3)CC2)cnn1-c1ccccc1 [compound 373]	5 to 50	1 to 5 (≈ 2.05 to 10.2 µM)	0.5 to 1 (≈ 1.02 to 2.05 µM)	5 to 50 (≈ 10.2 to 102 µM)	1 to 5 (≈ 2.05 to 10.2 µM)
CCOC(=O)C1CCCN(c2c(N3CCN(S(=O)(=O)c4c(F)cccc4F)CC3)cnn(-c3ccccc3)c2=O)C1 (stereo not shown) [compound 236]	1 to 5	1 to 5 (≈ 1.7 to 8.51 µM)	1 to 5 (≈ 1.7 to 8.51 µM)	1 to 5 (≈ 1.7 to 8.51 µM)	0.5 to 1 (≈ 0.851 to 1.7 µM)
O=c1c(OCc2ccccc2)c(N2CCN(Cc3c(Cl)cccc3Cl)CC2)cnn1-c1ccccc1 [compound 339]	1 to 5	1 to 5 (≈ 1.92 to 9.59 µM)	1 to 5 (≈ 1.92 to 9.59 µM)	5 to 50 (≈ 9.59 to 95.9 µM)	1 to 5 (≈ 1.92 to 9.59 µM)
CCOC(=O)C1CCCN(c2c(N3CCN(C(=O)c4c[nH]c5ccccc45)CC3)cnn(-c3ccccc3)c2=O)C1 (stereo not shown) [compound 114]	5 to 50	5 to 50 (≈ 9.01 to 90.1 µM)	5 to 50 (≈ 9.01 to 90.1 µM)	5 to 50 (≈ 9.01 to 90.1 µM)	5 to 50 (≈ 9.01 to 90.1 µM)
COc1ccc(Sc2c(N3CCN(S(=O)(=O)c4ccccc4)CC3)cnn(-c3ccccc3)c2=O)cc1 [compound 74]	1 to 5	1 to 5 (≈ 1.87 to 9.35 µM)	1 to 5 (≈ 1.87 to 9.35 µM)	5 to 50 (≈ 9.35 to 93.5 µM)	0.5 to 1 (≈ 0.935 to 1.87 µM)
CCOC(=O)C1CCCN(c2c(N3CCN(C(=O)CSc4nccc(C)n4)CC3)cnn(-c3ccccc3)c2=O)C1 (stereo not shown) [compound 130]	5 to 50	5 to 50 (≈ 8.65 to 86.5 µM)	5 to 50 (≈ 8.65 to 86.5 µM)	5 to 50 (≈ 8.65 to 86.5 µM)	1 to 5 (≈ 1.73 to 8.65 µM)
COc1ccc(CCOc2c(N3CCN(Cc4ccccc4O)CC3)cnn(-c3ccccc3)c2=O)cc1 [compound 316]	1 to 5	5 to 50 (≈ 9.75 to 97.5 µM)	0.5 to 1 (≈ 0.975 to 1.95 µM)	5 to 50 (≈ 9.75 to 97.5 µM)	5 to 50 (≈ 9.75 to 97.5 µM)
O=c1c(OC2Cc3ccccc3C2)c(N2CCN(Cc3ccoc3)CC2)cnn1-c1ccccc1 [compound 343]	0.5 to 1	1 to 5 (≈ 2.13 to 10.7 µM)	< 0.5	5 to 50 (≈ 10.7 to 107 µM)	1 to 5 (≈ 2.13 to 10.7 µM)
COc1ccc(Sc2c(N3CCN(S(=O)(=O)c4cccs4)CC3)cnn(-c3ccccc3)c2=O)cc1 [compound 66]	1 to 5	5 to 50 (≈ 9.25 to 92.5 µM)	1 to 5 (≈ 1.85 to 9.25 µM)	5 to 50 (≈ 9.25 to 92.5 µM)	0.5 to 1 (≈ 0.925 to 1.85 µM)
O=c1c(SCc2ccccc2)c(N2CCN(Cc3cc(O)cc(O)c3)CC2)cnn1-c1ccccc1 [compound 1]	5 to 50	5 to 50 (≈ 9.99 to 99.9 µM)	5 to 50 (≈ 9.99 to 99.9 µM)	5 to 50 (≈ 9.99 to 99.9 µM)	1 to 5 (≈ 2 to 9.99 µM)
O=c1c(SCc2ccccc2)c(N2CCN(S(=O)(=O)c3ccccc3[N+](=O)[O-])CC2)cnn1-c1ccccc1 [compound 67]	5 to 50	5 to 50 (≈ 8.87 to 88.7 µM)	5 to 50 (≈ 8.87 to 88.7 µM)	5 to 50 (≈ 8.87 to 88.7 µM)	1 to 5 (≈ 1.77 to 8.87 µM)
Cc1cccc(CN2CCN(c3cnn(-c4ccccc4)c(=O)c3SC(C)C)CC2)c1 [compound 9]	5 to 50	5 to 50 (≈ 11.5 to 115 µM)	0.5 to 1 (≈ 1.15 to 2.3 µM)	5 to 50 (≈ 11.5 to 115 µM)	0.5 to 1 (≈ 1.15 to 2.3 µM)
CC(C)OCCCNc1c(N2CCN(S(=O)(=O)Cc3ccccc3)CC2)cnn(-c2ccccc2)c1=O [compound 254]	5 to 50	5 to 50 (≈ 9.51 to 95.1 µM)	1 to 5 (≈ 1.9 to 9.51 µM)	5 to 50 (≈ 9.51 to 95.1 µM)	1 to 5 (≈ 1.9 to 9.51 µM)
O=c1c(N2CCOCC2)c(N2CCN(S(=O)(=O)Cc3ccccc3)CC2)cnn1-c1ccccc1 [compound 253]	5 to 50	1 to 5 (≈ 2.02 to 10.1 µM)	1 to 5 (≈ 2.02 to 10.1 µM)	5 to 50 (≈ 10.1 to 101 µM)	1 to 5 (≈ 2.02 to 10.1 µM)
Cc1nc[nH]c1CN1CCN(c2cnn(-c3ccccc3)c(=O)c2SCc2ccccc2)CC1 [compound 17]	5 to 50	5 to 50 (≈ 10.6 to 106 µM)	5 to 50 (≈ 10.6 to 106 µM)	5 to 50 (≈ 10.6 to 106 µM)	5 to 50 (≈ 10.6 to 106 µM)
CCOC(=O)C1CCCN(c2c(N3CCN(C(=O)c4ccc5[nH]cnc5c4)CC3)cnn(-c3ccccc3)c2=O)C1 (stereo not shown) [compound 136]	5 to 50	5 to 50 (≈ 9 to 90 µM)	5 to 50 (≈ 9 to 90 µM)	5 to 50 (≈ 9 to 90 µM)	5 to 50 (≈ 9 to 90 µM)
